Measured values published in patent US10800789B2, “Antiviral compounds” (Gilead Pharmasset LLC, priority 2012, dated 2020).
Read-outs that look alike come from different tables or passages of the source.

Key:
[1] = test system: NS5A chimeric genotype 2a JFH-1 replicon with genotype 2b MD2b-1 strain NS5A gene (M31 present); experiment: Replicon assay, genotype 2b NS5A chimera; type: cell-based, HCV; conditions: Hepatitis C virus
Procedure: (§1) Evaluation of Cell-Based Anti-HCV Activity:
(§2) Antiviral potency (EC50) was determined using a Renilla luciferase (RLuc)-based HCV replicon reporter assay. To perform the assay for genotype 1 and 2a JFH-1, stable HCV 1a RLuc replicon cells (harboring a dicistronic genotype 1a H77 replicon that encodes a RLuc reporter), stable HCV 1b RLuc replicon cells (harboring a dicistronic genotype 1b Con1 replicon that encodes a RLuc reporter), or stable HCV 2a JFH-1 Rluc replicon cells (harboring a dicistronic genotype 2a JFH-1 replicon that encodes a RLuc reporter; with L31 present in NS5A) were dispensed into 384-well plates for EC50 assays. To perform the assay for genotype 2a (with M31 present in NS5A) or 2b, NS5A chimeric genotype 2a JFH-1 replicons that encodes a RLuc-Neo reporter and either genotype 2a J6 strain NS5A gene or genotype 2b MD2b-1 strain NS5A gene (both with M31 present) respectively, were either transiently transfected (t) into Huh-Lunet cells or were established as stably replicating replicon cells (s) is provided. Either cells were dispensed into 384-well plates for EC50 assays. To perform the assay for genotype 3 and 4, NS5A chimeric genotype 1b Con1 replicons that encodes a Pi-RLuc reporter and either genotype 3a S52 strain NS5A gene or genotype 4a ED43 strain NS5A gene respectively, were transiently transfected (t) into Huh-Lunet cells, which were subsequently dispensed into 384-well plates. Compounds were dissolved in DMSO at a concentration of 10 mM and diluted in DMSO either manually or using an automated pipeting instrument. Serially 3-fold diluted compounds were either manually mixed with cell culture media and added to the seeded cells or directly added to the cells using an automated instrument. DMSO was used as a negative (solvent; no inhibition) control, and the protease inhibitor ITMN-191 was included at a concentration>100×EC50 as a positive control. 72 hours later, cells were lysed and Renilla luciferase activity quantified as recommended by the manufacturer (Promega-Madison, Wis.). Non-linear regression was performed to calculate EC50 values.

[2] = test system: NS5A chimeric genotype 1b Con1 replicon with genotype 4a ED43 strain NS5A gene; experiment: Replicon assay, genotype 4a NS5A chimera; type: cell-based, HCV; conditions: Hepatitis C virus
[3] = test system: stable HCV 1a RLuc replicon cells (dicistronic genotype 1a H77 replicon); experiment: Renilla luciferase HCV replicon reporter assay, genotype 1a; type: cell-based; conditions: Hepatitis C virus, 72 h, stable 1a H77 RLuc replicon cells
Procedure: as §1, §2

[4] = test system: stable HCV 1b RLuc replicon cells (dicistronic genotype 1b Con1 replicon); experiment: Renilla luciferase HCV replicon reporter assay, genotype 1b; type: cell-based; conditions: Hepatitis C virus, 72 h, stable 1b Con1 RLuc replicon cells, 72 hours; read-out: 1b
Procedure: as §1, §2

[5] = test system: stable HCV 2a JFH-1 Rluc replicon cells (L31 present in NS5A); experiment: Renilla luciferase HCV replicon reporter assay, genotype 2a JFH-1; type: cell-based; conditions: Hepatitis C virus
Procedure: as §1, §2

[6] = test system: NS5A chimeric genotype 1b Con1 replicon with genotype 3a S52 strain NS5A gene; experiment: Replicon assay, genotype 3a NS5A chimera; type: cell-based, HCV; conditions: Hepatitis C virus
[7] = test system: NS5A chimeric genotype 2a JFH-1 replicon with genotype 2a J6 strain NS5A gene (M31 present); experiment: Replicon assay, genotype 2a J6 NS5A chimera; type: cell-based, HCV; conditions: Hepatitis C virus, read-out: 2a J6 (t) (nM), genotype 2a J6 NS5A chimeric replicon (M31), transiently transfected (t) into Huh-Lunet cells
Procedure: as §1, §2

[8] = 2BS, read-out: 2b (s), stably replicating replicon cells (s), activity range
[9] = read-out: 2b (s) (nM), genotype 2b MD2b-1 NS5A chimeric replicon (M31), stably replicating replicon cells (s)
[10] = read-out: 4a (s) (nM), genotype 4a NS5A chimeric replicon, stable replicon cells (s)
[11] = read-out: 4a (s), (s), activity range
[12] = read-out: 2a JFH (nM), genotype 2a JFH-1 replicon (L31 in NS5A), stable cells
[13] = read-out: 2a JFH, stable 2a JFH-1 Rluc replicon cells, L31 in NS5A, activity range
[14] = read-out: 3a (s) (nM), genotype 3a NS5A chimeric replicon, stable replicon cells (s)
[15] = read-out: 3a (s), (s), activity range

Row | SMILES | EC50 [1, 8] | EC50 [1, 9] | EC50 [2, 10] | EC50 [2, 11] | EC50 [3] | EC50 ([3]; activity range) | EC50 [4] | EC50 [5, 12] | EC50 [5, 13] | EC50 [6, 14] | EC50 [6, 15] | EC50 [7]
1 | COC[C@H]1C[C@@H](c2ncc(-c3ccc4c(c3)COc3cc5c(ccc6nc([C@@H]7CC[C@H](C)N7C(=O)[C@@H](NC(=O)OC)C(C)C)[nH]c65)cc3-4)[nH]2)N(C(=O)[C@@H](NC(=O)OC)C2CCOCC2)C1 [GI, Methyl [(2S)-1-{(2S,4S)-2-[9-(2-{(2S,5S)-1-[(2S)-2-[(methoxycarbonyl)amino]-2-(tetrahydro-2H-pyran-4-yl)acetyl]-4-(methoxymethyl)pyrrolidin-2-yl}-1H-imidazol-5-yl)-1,11-dihydroisochromeno[4′,3′:6,7]naphtho[1,2-d]imidazol-2-yl]-5-methylpyrrolidin-1-yl}-3-methyl-1-oxobutan-2-yl]carbamate] | 0.1 to 0.999 nM | 0.193 nM | 0.022 nM | < 0.1 nM | 0.055 nM | < 0.1 nM | 0.064 nM | 0.025 nM | < 0.1 nM | 0.126 nM | 0.1 to 0.999 nM | –
2 | CC[C@H]1CC[C@@H](c2nc3ccc4cc5c(cc4c3[nH]2)OCc2cc(-c3cnc([C@@H]4C[C@@H]6CCC[C@@H]6N4C(=O)[C@@H](NC(=O)OC)[C@@H](C)CC)[nH]3)ccc2-5)N1C(=O)[C@@H](NC(=O)OC)C1CCOCC1 [IX] | 0.1 to 0.999 nM | 0.236 nM | 0.057 nM | < 0.1 nM | 0.035 nM | < 0.1 nM | 0.052 nM | 0.024 nM | < 0.1 nM | 0.246 nM | 0.1 to 0.999 nM | –
3 | CC[C@H](C)[C@H](NC(=O)OC)C(=O)N1C[C@@H](COC)C[C@H]1c1ncc(-c2ccc3c(c2)COc2cc4c(ccc5nc([C@@H]6CC[C@H](C)N6C(=O)[C@@H](NC(=O)OC)[C@@H](C)OC)[nH]c54)cc2-3)[nH]1 [FT, Methyl {(2S,3S)-1-[(2S,4S)-2-(5-{2-[(2S,5S)-1-{(2S,3R)-3-methoxy-2-[(methoxycarbonyl)amino]butanoyl}-5-methylpyrrolidin-2-yl]-1,11-dihydroisochromeno[4′,3′:6,7]naphtho[1,2-d]imidazol-9-yl}-1H-imidazol-2-yl)-4-(methoxymethyl)pyrrolidin-1-yl]-3-methyl-1-oxopentan-2-yl}carbamate] | 0.1 to 0.999 nM | 0.395 nM | 0.028 nM | < 0.1 nM | 0.04 nM | < 0.1 nM | 0.045 nM | 0.029 nM | < 0.1 nM | 0.283 nM | 0.1 to 0.999 nM | –
4 | CC[C@H](C)[C@H](NC(=O)OC)C(=O)N1CCC[C@H]1c1ncc(-c2ccc3c(c2)COc2cc4c(ccc5nc([C@@H]6CCCN6C(=O)[C@@H](NC(=O)OC)[C@@H](C)CC)[nH]c54)cc2-3)[nH]1 [HH] | – | 2.25 nM | 0.011 nM | – | – | – | – | 0.012 nM | – | 0.06 nM | – | 3 nM
5 | CC[C@H]1CC[C@@H](c2ncc(-c3ccc4c(c3)COc3cc5c(ccc6nc([C@@H]7CC[C@H](C)N7C(=O)[C@@H](NC(=O)OC)C7CCOCC7)[nH]c65)cc3-4)[nH]2)N1C(=O)[C@@H](NC(=O)OC)[C@@H](C)CC [IM] | 0.1 to 0.999 nM | 0.212 nM | 0.043 nM | < 0.1 nM | 0.033 nM | < 0.1 nM | 0.04 nM | 0.016 nM | < 0.1 nM | 0.15 nM | 0.1 to 0.999 nM | –
6 | COC(=O)N[C@H](C(=O)N1[C@@H](C)CC[C@H]1c1ncc(-c2ccc3c(c2)COc2cc4c(ccc5nc([C@@H]6C[C@H](C)CN6C(=O)[C@@H](NC(=O)OC)[C@H](C)OC)[nH]c54)cc2-3)[nH]1)C(C)C [FU, Methyl {(2S)-1-[(2S,5S)-2-(5-{2-[(2S,4S)-1-{(2S,3S)-3-methoxy-2-[(methoxycarbonyl)amino]butanoyl}-4-methylpyrrolidin-2-yl]-1,11-dihydroisochromeno[4′,3′:6,7]naphtho[1,2-d]imidazol-9-yl}-1H-imidazol-2-yl)-5-methylpyrrolidin-1-yl]-3-methyl-1-oxobutan-2-yl}carbamate] | 0.1 to 0.999 nM | 0.347 nM | 0.018 nM | < 0.1 nM | 0.028 nM | < 0.1 nM | 0.032 nM | 0.021 nM | < 0.1 nM | 0.337 nM | 0.1 to 0.999 nM | –
7 | COC(=O)N[C@H](C(=O)N1C[C@@H](C)C[C@H]1c1ncc(-c2ccc3c(c2)COc2cc4c(ccc5nc([C@@H]6CC[C@H](C)N6C(=O)[C@@H](NC(=O)OC)[C@@H](C)OC)[nH]c54)cc2-3)[nH]1)C(C)C [GH, Methyl {(2S)-1-[(2S,4S)-2-(5-{2-[(2S,5S)-1-{(2S,3R)-3-methoxy-2-[(methoxycarbonyl)amino]butanoyl}-5-methylpyrrolidin-2-yl]-1,11-dihydroisochromeno[4′,3′:6,7]naphtho[1,2-d]imidazol-9-yl}-1H-imidazol-2-yl)-4-methylpyrrolidin-1-yl]-3-methyl-1-oxobutan-2-yl}carbamate] | 0.1 to 0.999 nM | 0.247 nM | – | – | 0.02 nM | < 0.1 nM | 0.027 nM | 0.011 nM | < 0.1 nM | 0.07 nM | < 0.1 nM | –
8 | CC[C@H]1CC[C@@H](c2ncc(-c3ccc4c(c3)COc3cc5c(ccc6nc([C@@H]7CC[C@H](C)N7C(=O)[C@@H](NC(=O)OC)[C@@H](C)CC)[nH]c65)cc3-4)[nH]2)N1C(=O)C(NC(=O)OC)C1CCOCC1 (stereo partly drawn) [IJ] | 0.1 to 0.999 nM | 0.212 nM | 0.036 nM | < 0.1 nM | 0.027 nM | < 0.1 nM | 0.029 nM | 0.012 nM | < 0.1 nM | 0.127 nM | 0.1 to 0.999 nM | –
9 | CC[C@H]1CC[C@@H](c2ncc(-c3ccc4c(c3)COc3cc5c(ccc6nc([C@@H]7C[C@H](COC)CN7C(=O)[C@@H](NC(=O)OC)C(C)C)[nH]c65)cc3-4)[nH]2)N1C(=O)[C@@H](NC(=O)OC)C(C)C [ER, Methyl {(2S)-1-[(2S,4S)-2-(9-{2-[(2S,5S)-5-ethyl-1-{(2S)-2-[(methoxycarbonyl)amino]-3-methylbutanoyl}pyrrolidin-2-yl]-1H-imidazol-5-yl}-1,11-dihydroisochromeno[4′,3′:6,7]naphtho[1,2-d]imidazol-2-yl)-4-(methoxymethyl)pyrrolidin-1-yl]-3-methyl-1-oxobutan-2-yl}carbamate] | 0.1 to 0.999 nM | 0.852 nM | 0.011 nM | < 0.1 nM | 0.016 nM | < 0.1 nM | 0.02 nM | 0.021 nM | < 0.1 nM | 2.8 nM | 1 to 44 nM | –
10 | COC(=O)N[C@H](C(=O)N1C[C@@H](C)C[C@H]1c1nc2ccc3cc4c(cc3c2[nH]1)OCc1cc(-c2cnc([C@@H]3CC[C@H](C)N3C(=O)[C@@H](NC(=O)OC)C3CCOCC3)[nH]2)ccc1-4)C(C)C [FP, Methyl [(2S)-1-{(2S,4S)-2-[9-(2-{(2S,5S)-1-[(2S)-2-[(methoxycarbonyl)amino]-2-(tetrahydro-2H-pyran-4-yl)acetyl]-5-methylpyrrolidin-2-yl}-1H-imidazol-5-yl)-1,11-dihydroisochromeno[4′,3′:6,7]naphtho[1,2-d]imidazol-2-yl]-4-methylpyrrolidin-1-yl}-3-methyl-1-oxobutan-2-yl]carbamate] | < 0.1 nM | 0.085 nM | 0.017 nM | < 0.1 nM | 0.016 nM | < 0.1 nM | 0.024 nM | 0.016 nM | < 0.1 nM | 0.052 nM | < 0.1 nM | –
